Measurements from US20080280933A1, “BENZIMIDAZOLYL COMPOUNDS” (priority 2006, published 2008).
pEC50: −log10 of the molar value.

target: T1, mGluR2 receptor (metabotropic glutamate receptor 2) (Homo sapiens, UniProt Q14416); assay: mGluR2 Potentiator Screen, FLIPR, EC10-EC20 glutamate challenge; type: cell-based; conditions: EC50 (uM)
T1 construct: expressed in transfected cells
Method in brief: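 HEK cells stably co-expressing mGluR2 and Gα15, kept glutamine-free overnight, were loaded with Fluo-4 plus probenecid and GPT/pyruvate. Compounds (top 10 μM) were added ≥30 min before an EC10–EC20 glutamate challenge. Peak FLIPR fluorescence ratios were curve-fitted, excluding points above maximal effect, with maxima from on-plate standards.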

T1 sequence (Q14416 19-872, species assumed): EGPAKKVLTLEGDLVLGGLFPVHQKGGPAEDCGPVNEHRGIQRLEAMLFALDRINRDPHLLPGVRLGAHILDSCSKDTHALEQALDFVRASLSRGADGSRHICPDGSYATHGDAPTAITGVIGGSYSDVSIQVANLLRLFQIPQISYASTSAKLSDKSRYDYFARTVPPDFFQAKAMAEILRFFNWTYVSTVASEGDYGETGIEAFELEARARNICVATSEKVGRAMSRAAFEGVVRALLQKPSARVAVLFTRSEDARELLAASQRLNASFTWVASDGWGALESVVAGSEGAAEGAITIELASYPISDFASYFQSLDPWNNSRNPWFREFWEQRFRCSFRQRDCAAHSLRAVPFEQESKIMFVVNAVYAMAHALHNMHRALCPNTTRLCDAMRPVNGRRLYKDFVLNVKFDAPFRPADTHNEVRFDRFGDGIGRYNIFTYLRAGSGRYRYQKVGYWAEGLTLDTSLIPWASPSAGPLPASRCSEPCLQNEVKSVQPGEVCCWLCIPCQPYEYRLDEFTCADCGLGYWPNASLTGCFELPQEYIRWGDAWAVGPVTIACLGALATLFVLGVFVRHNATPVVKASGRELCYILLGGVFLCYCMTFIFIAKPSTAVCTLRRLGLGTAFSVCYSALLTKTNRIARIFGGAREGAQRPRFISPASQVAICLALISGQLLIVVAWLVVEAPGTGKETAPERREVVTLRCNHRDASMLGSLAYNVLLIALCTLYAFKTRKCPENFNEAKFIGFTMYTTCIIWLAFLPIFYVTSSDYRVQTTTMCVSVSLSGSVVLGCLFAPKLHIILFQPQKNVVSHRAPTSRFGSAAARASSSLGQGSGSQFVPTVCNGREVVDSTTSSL

Compound | EC50 [µM]
CCC(=O)C1(c2ccccc2)CCN(Cc2nc3ccccc3n2C)CC1 [compound 73] | 3.97

same assay, conditions: listed as 11; read-out: EC50

Compound | pEC50
Methyl 2-((4-(2-methoxyphenyl)piperidin-1-yl)methyl)-1-methyl-1H-benzo[d]imidazole-5-carboxylate [Entry 296] | 5.44

same assay, conditions: mGluR2 potentiator screen, Table 7; read-out: EC50

Compound | pEC50
Cn1c(CN2CCC(c3cc(Cl)ccc3OCC3CCCCO3)CC2)nc2ccccc21 (stereo not drawn) [compound 216] | 6.27
CCCCN1CC2(CCN(Cc3nc4ccccc4n3C)CC2)c2cc(C)cc(C)c21 [compound 149] | 5.79
CC1CC1COc1ccc(Cl)cc1C1CCN(Cc2nc3ccccc3n2C2CC2)CC1 (stereo not drawn) [compound 198] | 5.65
CC[C@H](C)COc1ccc(Cl)cc1C1CCN(Cc2nc3ccccc3n2CCOC)CC1 [compound 176] | 5.87
CCCOc1ccc(Cl)cc1C1CCN(Cc2nc3ccccc3n2C)CC1 [compound 220] | 6.67
COC(=O)[C@H]1CN(Cc2nc3ccccc3n2C)C[C@@H]1c1ccc(C(F)(F)F)cc1 [compound 153] | 5.32
COCCn1c(CN2CCC(c3cc(Cl)ccc3OCC(C)C)CC2)nc2ccccc21 [compound 180] | 5.52
Cn1c(CN2CCC(c3cccc(C(F)(F)F)c3)CC2)nc2ccccc21 [compound 162] | 6.60
COCCn1c(CN2CCC(c3cc(Cl)ccc3OCC3CCCO3)CC2)nc2ccccc21 (stereo not drawn) [compound 209] | 5.77
COc1cccc2c1CC[C@H]1CN(Cc3nc4ccccc4n3C)CC[C@H]21 [compound 171] | 5.12
CC1CC1COc1ccc(Cl)cc1C1CCN(Cc2nc3ccccc3n2CF)CC1 (stereo not drawn) [compound 197] | 5.49
CC(C)COc1ccc(Cl)cc1C1CCN(Cc2nc3ccccc3n2C)CC1 [compound 178] | 6.30
Cn1c(CN2CCC(c3cc(Cl)ccc3F)CC2)nc2ccccc21 [compound 172] | 8.08
Clc1ccc(OCC2CCCCO2)c(C2CCN(Cc3nc4ccccc4n3C3CC3)CC2)c1 (stereo not drawn) [compound 214] | 5.70

same assay, conditions: read-out: EC50

Compound | pEC50
CN1CC2(CCN(Cc3nc4ccccc4n3C)CC2)c2cc(F)ccc21 [compound 136] | 5.58
2-((4-(2-fluorophenyl)piperidin-1-yl)methyl)-6-methoxy-1-methyl-1H-benzo[d]imidazole [Entry 278] | 5.79
Cn1c(CN2CCC(c3ccccc3F)CC2)nc2cc(C#N)ccc21 [Entry 272, 2-((4-(2-Fluorophenyl)piperidin-1-yl)methyl)-1-methyl-1H-benzo[d]imidazole-5-carbonitrile] | 7.14
Cc1ccc2c(c1)C1(CCN(Cc3nc4ccccc4n3C)CC1)CN2C(=O)c1ccoc1 [compound 29] | 5.61
C[C@@H]1CN(Cc2nc3ccccc3n2C)CC[C@@H]1c1ccc(F)c(F)c1 (racemic) [Entry 462, 2-{[Cis-4-(3,4-Difluoro-phenyl)-3-methyl-piperidin-1-yl]methyl}-1-methyl-1H-benzoimidazole] | 6.62
CCCCN1CC2(CCN(Cc3nc4ccccc4n3C)CC2)c2ccccc21 [compound 132] | 5.87
CCCN(CC1CC1)C(=O)c1cccc(C2CCN(Cc3nc4ccccc4n3C)CC2)c1 [compound 436] | 5.66
CCC(=O)N1CC2(CCN(Cc3nc4ccccc4n3C)CC2)c2cc(C)ccc21 [compound 23] | 6.03
Cn1c(CN2CCC(c3ccccc3F)CC2)nc2cccc(-c3ccccc3)c21 [compound 308] | 6.82
Cn1c(CN2CC[C@@H]3c4ccccc4CC[C@@H]3C2)nc2ccccc21 [compound 67] | 6.16
Cn1c(CN2CCC(F)(c3ccc(Cl)cc3)CC2)nc2ccccc21 [compound 432] | 6.59
Cc1ccc2c(c1)C1(CCN(Cc3nc4ccccc4n3C)CC1)CN2C(=O)c1snnc1C [compound 21] | 5.94
COc1ccccc1C1CCN(Cc2nc3ccccc3n2CF)CC1C (stereo not drawn) [compound 294] | 6.13
COc1ccc(C(F)(F)F)cc1C1CCN(Cc2nc3ccccc3n2C2CC2)CC1 [compound 318] | 5.33
COc1cc(C(F)(F)F)ccc1C1CCN(Cc2nc3cccc(F)c3n2C)CC1 [compound 406] | 6.93
Cc1ccccc1C1CCN(Cc2nc3ccccc3n2C)CC1 [compound 429] | 7.19
Cc1cc(C)c2c(c1)C1(CCN(Cc3nc4ccccc4n3C)CC1)CN2 [compound 147] | 5.24
COc1cc(C(F)(F)F)ccc1C1CCN(Cc2nc3c(F)cccc3n2C)CC1 [compound 399] | > 7.91
Cc1ccc2c(c1)C1(CCN(Cc3nc4ccccc4n3C)CC1)CN2CC1CCCO1 (stereo not drawn) [compound 124] | 5.39
Cn1c(CN2CCC(c3ccccc3OC3Cc4ccccc4C3)CC2)nc2ccccc21 [compound 102] | 5.82
CCOc1ccc(Cl)cc1C1CCN(Cc2nc3ccccc3n2C2CC2)CC1 [compound 225] | 6.00
Methyl 2-((4-(2-methoxyphenyl)piperidin-1-yl)methyl)-1-methyl-1H-benzo[d]imidazole-5-carboxylate [Entry 296] | 6.38

Compound | pEC50
Cc1ccc2c(c1)C1(CCN(Cc3nc4ccccc4n3C)CC1)CN2C [compound 146] | 5.78
Cn1c(CN2CCC(O)(c3ccc(Cl)cc3)CC2)nc2ccccc21 [compound 76] | < 5.24
C[C@@H]1CN(Cc2nc3ccccc3n2C)CC[C@@H]1c1ccc(F)c(Cl)c1 (relative stereo) [compound 456] | 6.74
Cn1c(CN2CCCC(c3ccccc3F)CC2)nc2ccccc21 (stereo not drawn) [compound 306] | 5.80
Cc1ccc(C2CCN(Cc3nc4ccccc4n3C)CC2)cc1C [compound 315] | 6.51
Cn1c(CN2CCC(c3ccccc3OCCC3CC3)CC2)nc2ccccc21 [compound 92] | < 5.49
Cn1c(CN2CCC(c3ccc(C(F)(F)F)cc3)CC2)nc2cc(C(N)=O)ccc21 [compound 364] | 6.30
Cn1c(CN2CC[C@@H]3c4c(Br)ccc(Cl)c4CC[C@H]3C2)nc2ccccc21 [compound 299] | 5.21
Cn1c(CN2CCC(c3ccc(F)cc3)CC2)nc2cc(C#N)ccc21 [compound 331] | 6.52
Cn1c(CN2CCC3(CC2)CN(C(=O)c2ccc4nccnc4c2)c2ccccc23)nc2ccccc21 [compound 48] | < 5.18
Cn1c(CN2CCC(c3cc(Cl)ccc3F)CC2)nc2cc(F)ccc21 [compound 372] | 6.51
COc1ccccc1C1(OC)CCN(Cc2nc3ccccc3n2CF)CC1C (stereo not drawn) [compound 334] | < 5.15
Cn1c(CN2CCC(c3cc(C(F)(F)F)ccc3F)CC2)nc2cc(F)ccc21 [compound 375] | 6.46
COCCn1c(CN2CCC(c3ccccc3F)CC2)nc2ccccc21 [compound 249] | 6.60
FCn1c(CN2CCC(c3ccccc3F)CC2)nc2ccccc21 [compound 252] | 6.65
COCCn1c(CN2CCC(c3ccc(C(F)(F)F)cc3)CC2)nc2ccccc21 [compound 246] | 6.38
Cn1c(CN2CCC(O)(c3ccc(Br)cc3)CC2)nc2ccccc21 [compound 75] | < 5.13
FCCn1c(CN2CCC(c3ccc(F)cc3)CC2)nc2ccccc21 [compound 370] | 6.24
COc1ccccc1C1CCN(Cc2nc3ccccc3n2C2CC2)CC1 [compound 244] | 6.32
Cn1c(CN2CCC(c3ccc(F)cc3)CC2)nc2cc(F)c(F)cc21 [compound 368] | 6.32
Cn1c(CN2CCC(c3cccc(C#N)c3)CC2)nc2ccccc21 [compound 418] | 5.79
CC(C)COc1ccccc1C1CCN(Cc2nc3ccccc3n2C)CC1 [compound 96] | < 5.41

Compound | pEC50
Cn1c(CN2CCC(c3ccccc3OCC3CCC3)CC2)nc2ccccc21 [compound 84] | 6.13
CC[C@H](C)COc1ccccc1C1CCN(Cc2nc3ccccc3n2C)CC1 [compound 94] | 5.79
COc1ccccc1C1CCN(Cc2nc3cc(C#N)ccc3n2C)CC1 [compound 283] | 7.04
Cn1c(CN2CCC(c3ccc(C(F)(F)F)cc3)C(F)C2)nc2cccc(F)c21 (stereo not drawn) [compound 445] | 6.86
COc1ccccc1C1CCN(Cc2nc3cc(F)c(F)cc3n2C)CC1 [compound 258] | 7.09
COc1cc(F)ccc1[C@H]1CCN(Cc2nc3ccccc3n2C)C[C@H]1C (relative stereo) [compound 464] | 6.90
CC(C)Oc1ccccc1C1CCN(Cc2nc3cc(Cl)ccc3n2C)CC1 [compound 379] | 5.80
Cn1c(CN2CCC(c3ccccc3F)CC2)nc2cc(CO)ccc21 [Entry 297, (2-((4-(2-Fluorophenyl)piperidin-1-yl)methyl)-1-methyl-1H-benzo[d]imidazol-5-yl)methanol] | 6.77
Cn1c(CN2CCC(c3ccc(Cl)c(C(F)(F)F)c3)CC2)nc2ccccc21 [compound 446] | 7.37
Cn1c(CN2CCC3(CC2)CN(C(=O)C2CC2)c2ccccc23)nc2ccccc21 [compound 61] | 5.40
Cn1c(CN2CCC(c3ccc(Cl)cc3F)CC2)nc2cc(F)ccc21 [compound 458] | 7.38
Cn1c(CN2CCC3(CC2)CN(C(=O)c2cccs2)c2ccccc23)nc2ccccc21 [compound 59] | 5.51
Cn1c(CN2CCC(c3ccccc3OCCc3ccccn3)CC2)nc2ccccc21 [compound 97] | < 5.02
Cn1c(CN2CCC3(CC2)CN(Cc2cccnc2)c2ccccc23)nc2ccccc21 [compound 112] | < 5.01
Cn1c(CN2CC[C@@H](c3ccc(F)cc3)[C@H](COc3ccc4c(c3)OCO4)C2)nc2ccccc21 [compound 410] | 5.28
CCCCCOc1ccccc1C1CCN(Cc2nc3ccccc3n2C)CC1 [compound 93] | 6.49
Cn1c(CN2CCC(c3ccccc3F)CC2)nc2ccc(Br)cc21 [compound 274] | 6.50
COc1cc(C(F)(F)F)ccc1C1CCN(Cc2nc3cc(F)c(F)cc3n2C)CC1 [compound 360] | 6.58
COC(=O)CCC(=O)N1CC2(CCN(Cc3nc4ccccc4n3C)CC2)c2cc(Cl)ccc21 [compound 42] | 5.49
COc1cc(C(F)(F)F)ccc1C1CCN(Cc2nc3cc(F)ccc3n2C)CC1 [compound 349] | 7.46
Cn1c(CN2CCC(c3cc(Cl)ccc3F)CC2)nc2cc(Cl)ccc21 [compound 380] | 5.76
